Assay results as given in PubChem BioAssay (NCI).
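Step 1: Grow cells in 96-well plates. Step 2: Expose to compound for 48 hours at 5 concentrations. Step 3: Interpolate endpoints linearly; if unreached, use highest concentration. At the TGI there is no net growth.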

Columns and labels:
Experiment in all cases: inhibition of tumour cell growth, NCI panel, 48 h
HT29 colon = test system: HT29 colon
HCT-116 colon = test system: HCT-116 colon
HOP-92 NSCLC = test system: HOP-92 NSCLC
SR leukemia = test system: SR leukemia
HL-60(TB) leukemia = test system: HL-60(TB) leukemia
NCI-H460 lung = test system: NCI-H460 lung
IGROV1 ovarian = test system: IGROV1 ovarian
SNB-75 CNS = test system: SNB-75 CNS
SF-268 CNS = test system: SF-268 CNS
NCI-H23 lung = test system: NCI-H23 lung
U251 CNS = test system: U251 CNS
SK-OV-3 ovarian = test system: SK-OV-3 ovarian
NCI-H522 lung = test system: NCI-H522 lung
SF-539 CNS = test system: SF-539 CNS
NCI-H226 lung = test system: NCI-H226 lung
OVCAR-8 ovarian = test system: OVCAR-8 ovarian
SN12C renal = test system: SN12C renal
LXFL 529 NSCLC = test system: LXFL 529 NSCLC
DMS 273 small cell lung = test system: DMS 273 small cell lung
UACC-62 melanoma = test system: UACC-62 melanoma
KM20L2 colon = test system: KM20L2 colon
HCC-2998 colon = test system: HCC-2998 colon
M19-MEL melanoma = test system: M19-MEL melanoma
SK-MEL-28 melanoma = test system: SK-MEL-28 melanoma
DMS 114 small cell lung = test system: DMS 114 small cell lung
XF 498 CNS = test system: XF 498 CNS
SK-MEL-2 melanoma = test system: SK-MEL-2 melanoma
SNB-19 CNS = test system: SNB-19 CNS
EKVX NSCLC = test system: EKVX NSCLC
CCRF-CEM leukemia = test system: CCRF-CEM leukemia
ACHN renal = test system: ACHN renal
TK-10 renal = test system: TK-10 renal
HOP-62 NSCLC = test system: HOP-62 NSCLC
M14 melanoma = test system: M14 melanoma
UACC-257 melanoma = test system: UACC-257 melanoma
SK-MEL-5 melanoma = test system: SK-MEL-5 melanoma
OVCAR-5 ovarian = test system: OVCAR-5 ovarian
A549 NSCLC = test system: A549 NSCLC
RXF 393 renal = test system: RXF 393 renal
RXF-631 renal = test system: RXF-631 renal
A498 renal = test system: A498 renal
786-0 renal = test system: 786-0 renal
UO-31 renal = test system: UO-31 renal
LOX IMVI melanoma = test system: LOX IMVI melanoma
MALME-3M melanoma = test system: MALME-3M melanoma
MOLT-4 leukemia = test system: MOLT-4 leukemia
KM12 colon = test system: KM12 colon
SF-295 CNS = test system: SF-295 CNS
OVCAR-4 ovarian = test system: OVCAR-4 ovarian
SNB-78 CNS = test system: SNB-78 CNS
K-562 leukemia = test system: K-562 leukemia
CAKI-1 renal = test system: CAKI-1 renal

Structure (SMILES): CCN(CC)CCSc1c2ccccc2nc2c(OC)ccc(OC)c12
- TGI (HT29 colon): 23.1 µM
- TGI (HCT-116 colon): 17.7 µM
- TGI (HOP-92 NSCLC): 7.57 µM
- TGI (SR leukemia): 10.7 µM
- TGI (HL-60(TB) leukemia): 17.7 µM
- TGI (NCI-H460 lung): 36.4 µM
- TGI (IGROV1 ovarian): 51.4 µM
- TGI (SNB-75 CNS): > 70 µM
- TGI (SF-268 CNS): 26.1 µM
- TGI (NCI-H23 lung): 27.9 µM
- TGI (U251 CNS): 49.4 µM
- TGI (SK-OV-3 ovarian): 69.2 µM
- TGI (NCI-H522 lung): 19.8 µM
- TGI (SF-539 CNS): > 33.9 µM
- TGI (NCI-H226 lung): 50.7 µM
- TGI (OVCAR-8 ovarian): 12 µM
- TGI (SN12C renal): > 39.3 µM
- TGI (LXFL 529 NSCLC): > 21.3 µM
- TGI (DMS 273 small cell lung): 25 µM
- TGI (UACC-62 melanoma): > 22.2 µM
- TGI (KM20L2 colon): > 21.1 µM
- TGI (HCC-2998 colon): > 36 µM
- TGI (M19-MEL melanoma): 38.2 µM
- TGI (SK-MEL-28 melanoma): 8.91 µM
- TGI (DMS 114 small cell lung): 3.24 µM
- TGI (XF 498 CNS): > 21.1 µM
- TGI (SK-MEL-2 melanoma): > 23 µM
- TGI (SNB-19 CNS): > 100 µM
- TGI (EKVX NSCLC): > 100 µM
- TGI (CCRF-CEM leukemia): > 68.9 µM
- TGI (ACHN renal): > 23.5 µM
- TGI (TK-10 renal): 17.3 µM
- TGI (HOP-62 NSCLC): > 70.2 µM
- TGI (M14 melanoma): 15.4 µM
- TGI (UACC-257 melanoma): 16.5 µM
- TGI (SK-MEL-5 melanoma): 16.5 µM
- TGI (OVCAR-5 ovarian): 48.2 µM
- TGI (A549 NSCLC): 50.1 µM
- TGI (RXF 393 renal): 3.94 µM
- TGI (RXF-631 renal): 17.9 µM
- TGI (A498 renal): 32.5 µM
- TGI (786-0 renal): > 20.6 µM
- TGI (UO-31 renal): 33.9 µM
- TGI (LOX IMVI melanoma): > 41.2 µM
- TGI (MALME-3M melanoma): > 60.9 µM
- TGI (MOLT-4 leukemia): 3.84 µM
- TGI (KM12 colon): 16.8 µM
- TGI (SF-295 CNS): 59.4 µM
- TGI (OVCAR-4 ovarian): > 20 µM
- TGI (SNB-78 CNS): 22.3 µM
- TGI (K-562 leukemia): > 24.5 µM
- TGI (CAKI-1 renal): > 22.2 µM
